Assay results: patent US8367690B2, “Aminopyridine derivatives having aurora a selective inhibitory action” (Vertex Pharmaceuticals Inc., priority 2009, dated 2013)
pIC50: −log10 of the molar value. Counter-ions that a name gives are not always drawn.

Assays:
[1] = target: T1, GST-tagged human Aurora B(AurB)/His-tagged human INCENP complex proteins (Homo sapiens, UniProt Q96GD4); assay: Aurora B inhibitory activity, Method A (IMAP assay development kit); format: biochemical; conditions: 40 μM ATP, 100 nM substrate, 25° C. for 45 minutes
T1 construct: GST; purchased Curia Biosciences, Inc
T1 sequence (Q96GD4 whole entry): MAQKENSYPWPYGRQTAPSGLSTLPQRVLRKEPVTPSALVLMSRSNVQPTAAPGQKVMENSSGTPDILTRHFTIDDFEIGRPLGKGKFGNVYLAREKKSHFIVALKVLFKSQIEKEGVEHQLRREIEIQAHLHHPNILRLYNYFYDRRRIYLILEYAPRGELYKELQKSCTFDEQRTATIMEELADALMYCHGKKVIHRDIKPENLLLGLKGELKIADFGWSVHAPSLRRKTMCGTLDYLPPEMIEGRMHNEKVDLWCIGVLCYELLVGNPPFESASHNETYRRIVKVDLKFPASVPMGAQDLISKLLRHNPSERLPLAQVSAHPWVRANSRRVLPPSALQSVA
T1 sequence (Q9NQS7 803-916 partner limits assumed): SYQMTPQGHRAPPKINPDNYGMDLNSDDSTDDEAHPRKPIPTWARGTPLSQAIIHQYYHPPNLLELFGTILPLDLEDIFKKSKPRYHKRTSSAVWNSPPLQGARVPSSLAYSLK
Protocol: An assay development kit for IMAP (registered trademark) (Aurora B), purchased from Curia Biosciences, Inc., was used for phosphorylation reaction, and the phosphorylation of a substrate was detected using the IMAP technology. The assay development kit used is comprised of an assay buffer, GST-tagged human Aurora B(AurB)/His-tagged human INCENP complex proteins (amino acid sequence: 803-916, AAU04398.1), and an ATP/substrate solution. Using the same, the phosphorylation reaction was conducted in accordance with a partially revised protocol attached to the kit, and then the phosphorylation of the substrate was detected using the IMAP technology.
For the phosphorylation reaction, 384 well plate was used, and the reaction volume was 10 μl/well. The composition of the reaction buffer (assay buffer) is comprised of 20 mM of HEPES buffer (pH 7.4), 0.01% Tween-20, and 2 mM of dithiothreitol (DTT). Thereto, AurB/INCENP complex protein, 100 nM of the substrate, and 40 μM of ATP, and 1 mM of magnesium salt were added, and then the reaction was conducted at 25° C. for 45 minutes. Thereafter, in order to terminate and detect the reaction, 30 μl of the IMAP (registered trademark) binding reagent (IMAP Progressive Binding Reagent, R7284) that had been diluted (1:400) in the lx IMAP binding buffer A (IMAP Progressive Binding Buffer A, 5× stock, R7282) was added to each well. The solution stood still for 60 minutes in the dark, and then fluorescence polarization was measured using a high-end microplate reader (excitation wavelength: 485 nm; emission wavelength: 520 nm).
(§1) The compound to be tested was added to the reaction system such that a dilution series of the compound in DMSO was prepared, and then 0.5 μL of this solution was added for the testing to each well. Each control well was provided by adding 0.5 μL of DMSO to the well in place of the DMSO solution containing the compound to be tested.
(§2) Using the above method (in the measurement of activity of Aurora B, Method A was used), the results for measurement of the activities of Aurora A and Aurora B were obtained as shown in Table 1. […] Similar results are obtained when Method B is used in the measurement of activity of Aurora B.

[2] = target: T2, His-tagged human Aurora A (Homo sapiens, UniProt O14965); assay: Aurora A inhibitory activity (IMAP fluorescence polarization phosphorylation assay); format: biochemical; conditions: 20 μM ATP, 100 nM peptide substrate, 30° C. for 120 minutes
T2 construct: His (N); made in house; host or cells: Escherichia coli BL21-CodonPlus(DE3)-RIL
T2 sequence (O14965 1-403): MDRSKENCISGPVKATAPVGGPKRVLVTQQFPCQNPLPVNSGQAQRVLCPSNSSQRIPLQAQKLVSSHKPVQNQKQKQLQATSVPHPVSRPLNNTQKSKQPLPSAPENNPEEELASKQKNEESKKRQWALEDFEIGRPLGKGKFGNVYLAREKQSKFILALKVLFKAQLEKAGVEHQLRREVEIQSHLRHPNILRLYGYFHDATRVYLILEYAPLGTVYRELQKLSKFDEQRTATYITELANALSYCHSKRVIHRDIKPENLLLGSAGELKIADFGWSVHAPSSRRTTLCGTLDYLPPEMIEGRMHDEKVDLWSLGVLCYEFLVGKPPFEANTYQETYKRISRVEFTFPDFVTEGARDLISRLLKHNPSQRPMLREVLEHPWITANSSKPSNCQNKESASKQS
Description: cDNA of N-terminal His-tagged human Aurora A was integrated into an expression vector, which was then highly expressed in Escherichia coli BL21-CodonPlus(DE3)-RIL cells. The Escherichia coli was harvested and lysed, and then the His-tagged human Aurora A protein was applied onto a nickel chelate column and eluted from the column with imidazole. The active fractions were desalted with a desalting column to give a purified enzyme.
For measurement of the activity of Aurora A, the substrate used was a synthetic peptide (5-FAM (5-carboxyfluorescein)-γ-aminobutyric acid-Ala-Leu-Arg-Arg-Ala-Ser-Leu-Gly-NH2) (SEQ.ID.NO.:1), which was purchased from Toray Research Center, Inc.
For the phosphorylation reaction, the method by Upstate, Inc. [Kinase Profiler™ Assay Protocols] was referred to, and phosphorylation of the substrate was detected using IMAP® technology (Molecular Devices, Co. Ltd.) (Gaudet E W. et. al, J. Biomol. Screen, 8, 164-175(2003)). Concretely, the phosphorylation reaction and the detection were carried out as follows:
The phosphorylation reaction was conducted using 384 well plate, and the reaction volume was 10 μl/well. The reaction buffer is comprised of 50 mM Tris-chloride buffer (pH 7.4), 15 mM magnesium acetate, and 0.2 mM ethylenediamine-N,N,N′,N′-tetraacetic acid (EDTA). Thereto, the purified Aurora A protein, 100 nM of the peptide substrate, and 20 μM of adenosine 5′-triphosphate (ATP) were added, and then the reaction was carried out at 30° C. for 120 minutes.
Thereafter, in order to terminate and detect the reaction, 30 μl of the IMAP (registered trademark) binding reagent (IMAP Progressive Binding Reagent, R7284) that had been diluted (1:400) in the lx IMAP binding buffer A (IMAP Progressive Binding Buffer A, 5× stock, R7282) was added to each well. The solution stood still for 60 minutes in the dark, and then fluorescence polarization was measured using a high-end microplate reader (excitation wavelength: 485 nm; emission wavelength: 520 nm).
as §1, with “in dimethylsulfoxide (DMSO)” for “in DMSO”
as §2

Compound | pIC50 [1] | pIC50 [2]
Cc1cc(Nc2cc[nH]n2)nc(N2C[C@@H](NC(=O)OC(C)(C)C)C[C@@H](C(=O)O)C2)n1 (relative stereo) [Example 8, cis-5-[(tert-butoxycarbonyl)amino]-1-[4-methyl-6-(1H-pyrazol-5-ylamino)pyrimidin-2-yl]piperidine-3-carboxylic acid] | 5.13 | 8.04
Cc1cc(Nc2cc(C3CC3)[nH]n2)nc(N2C[C@@H](C(=O)O)C[C@@H](C3CCCCC3)C2)n1 (stereo in doubt) [Example 20, (3S*,5S*)-5-cyclohexyl-1-{4-[(3-cyclopropyl-1H-pyrazol-5-yl)amino]-6-methylpyrimidin-2-yl}piperidine-3-carboxylic acid trifluoroacetate] | 5.94 | 8.62
Cc1cc(Nc2cc[nH]n2)nc(N2C[C@H](NC(=O)OC(C)(C)C)C[C@@H](C(=O)O)C2)n1 (relative stereo) [Example 6, trans-5-[(tert-butoxycarbonyl)amino]-1-[4-methyl-6-(1H-pyrazol-5-ylamino)pyrimidin-2-yl]piperidine-3-carboxylic acid] | < 5.00 | 7.26
Cc1cc(Nc2cc(C3CC3)[nH]n2)nc(N2C[C@H](CC(=O)O)C[C@H](C3CCCCC3)C2)n1 (stereo in doubt) [Example 23, [(3S*,5R*)-5-cyclohexyl-1-{4-[(3-cyclopropyl-1H-pyrazol-5-yl)amino]-6-methylpyrimidin-2-yl}piperidin-3-yl]acetic acid] | 5.57 | 8.40

The remaining compounds from weak to strong by pIC50 [1], led by results:

pIC50 [1] | pIC50 [2] | Compound
5.10 | 8.11 | Cc1cc(Nc2cc[nH]n2)nc(N2C[C@H](C(=O)O)C[C@H](c3ccccc3)C2)n1 (relative stereo) [Example 10, cis-1-[4-methyl-6-(1H-pyrazol-5-ylamino)pyrimidin-2-yl]-5-phenylpiperidine-3-carboxylic acid trifluoroacetate]
5.18 | 8.96 | Cc1cc(Nc2cc[nH]n2)nc(N2C[C@H](C(=O)O)C[C@H](C3CCCCC3)C2)n1 (relative stereo) [Example 13, cis-5-cyclohexyl-1-[4-methyl-6-(1H-pyrazol-5-ylamino)pyrimidin-2-yl]piperidine-3-carboxylic acid trifluoroacetate]
6.46 | > 9.52 | Cc1cc(Nc2cc(C3CC3)[nH]n2)nc(N2C[C@@H](CC(=O)O)C[C@@H](C3CCCCC3)C2)n1 (stereo in doubt) [Example 24, [(3R*,5S*)-5-cyclohexyl-1-{4-[(3-cyclopropyl-1H-pyrazol-5-yl)amino]-6-methylpyrimidin-2-yl}piperidin-3-yl]acetic acid]
6.56 | 9.09 | Cc1cc(Nc2cc(C3CC3)[nH]n2)nc(N2C[C@H](C(=O)O)C[C@H](C3CCCCC3)C2)n1 (stereo in doubt) [Example 21, (3R*,5R*)-5-cyclohexyl-1-{4-[(3-cyclopropyl-1H-pyrazol-5-yl)amino]-6-methylpyrimidin-2-yl}piperidine-3-carboxylic acid trifluoroacetate]
